These results are taken from patent US7632819B1, “Methods and compositions for inhibiting PKC delta cleavage for treatment and prevention of neurodegeneration and apoptosis” (Iowa State University Research Foundation, Inc., priority 2004, dated 2009).

Assay [1] deals with N27 mesencephalic neuronal cells. The assay is described as follows: MTT cytotoxicity assay, MPP+- and 6-OHDA-induced cytotoxicity. The following applies: N27 cells, 100 μM 6-OHDA 24 hr, inhibitor 50 μM. From the text:
Chemicals. Protease cocktail, ATP, protein-A-sepharose, protein-G-sepharose and anti-â-actin antibody were obtained from Sigma-Aldrich (St. Louis, Mo.); mouse tyrosine hydroxylase antibody was purchased from Chemicon (Temecula, Calif.); the rabbit polyclonal antibody for tyrosine hydroxylase was obtained from Calbiochem Bioscience, Inc. (King of Prussia, Pa.); rabbit PKCδ antibody was purchased from Santa Cruz Biotechnology, Inc. (Santa Cruz, Calif.); anti-rabbit and anti-mouse secondary antibodies and the ECL chemiluminescence kit were purchased from Amersham Pharmacia Biotech. (Piscataway, N.J.). Alexa 488 conjugated antirabbit/mouse, Cy3 conjugated anti-rabbit/mouse antibody and Hoechst 33342 were purchased from Molecular Probes, Inc. (Eugene, Oreg.). [ã-32P]ATP was purchased from Perkin Elmer Life Science Products (Boston, Mass.). The Bradford protein assay kit was purchased from Bio-Rad Laboratories (Hercules, Calif.). RPMI, fetal bovine serum, -glutamine, penicillin, and streptomycin were purchased from Invitrogen (Gaithersburg, Md.). Quantity One 4.2.0 software was purchased from Bio-Rad. Design and synthesis of z-DIPD-fmk (SEQ ID NO:5). To develop a cell permeable peptide inhibitor to specifically block PKCδ cleavage, we designed the tetrapeptide Asp-Ile-Pro-Asp (DIPD) (SEQ ID NO:5) corresponding to position 324-327 in rat PKCδ cDNA representing the caspase-3 cleavage site. Since this peptide is directed against the caspase-3 cleavage site of PKCδ, it should prevent the proteolytic cleavage and activation of PKCδ mediated by caspase-3. The custom synthesis of the tetrapeptide Z-Asp(OMe)-Ile-Pro-Asp(OMe)-FMK (SEQ ID NO:5) was performed at MP Biomedicals (Irvine, Calif.), a quality company that specializes in developing cell permeable peptide inhibitors directed against apoptosis cell signaling molecules. […]

In assay [2] the test system is primary mesencephalic dopaminergic neuronal cells. The assay is described as follows: TH immunostaining, TH+ cell count and neuronal process length in primary mesencephalic cultures. Type of assay: cell-based, mouse. The source says:
(§1) Chemicals. Protease cocktail, ATP, protein-A-sepharose, protein-G-sepharose and anti-â-actin antibody were obtained from Sigma-Aldrich (St. Louis, Mo.); mouse tyrosine hydroxylase antibody was purchased from Chemicon (Temecula, Calif.); the rabbit polyclonal antibody for tyrosine hydroxylase was obtained from Calbiochem Bioscience, Inc. (King of Prussia, Pa.); rabbit PKCδ antibody was purchased from Santa Cruz Biotechnology, Inc. (Santa Cruz, Calif.); anti-rabbit and anti-mouse secondary antibodies and the ECL chemiluminescence kit were purchased from Amersham Pharmacia Biotech. (Piscataway, N.J.). Alexa 488 conjugated antirabbit/mouse, Cy3 conjugated anti-rabbit/mouse antibody and Hoechst 33342 were purchased from Molecular Probes, Inc. (Eugene, Oreg.). [ã-32P]ATP was purchased from Perkin Elmer Life Science Products (Boston, Mass.). The Bradford protein assay kit was purchased from Bio-Rad Laboratories (Hercules, Calif.). RPMI, fetal bovine serum, -glutamine, penicillin, and streptomycin were purchased from Invitrogen (Gaithersburg, Md.). Quantity One 4.2.0 software was purchased from Bio-Rad. Design and synthesis of z-DIPD-fmk (SEQ ID NO:5). To develop a cell permeable peptide inhibitor to specifically block PKCδ cleavage, we designed the tetrapeptide Asp-Ile-Pro-Asp (DIPD) (SEQ ID NO:5) corresponding to position 324-327 in rat PKCδ cDNA representing the caspase-3 cleavage site. Since this peptide is directed against the caspase-3 cleavage site of PKCδ, it should prevent the proteolytic cleavage and activation of PKCδ mediated by caspase-3. The custom synthesis of the tetrapeptide Z-Asp(OMe)-Ile-Pro-Asp(OMe)-FMK (SEQ ID NO:5) was performed at MP Biomedicals (Irvine, Calif.), a quality company that specializes in developing cell permeable peptide inhibitors directed against apoptosis cell signaling molecules. Briefly, the synthesis was performed with the reaction of Boc-D(OMe)-OH with MBFM (Magnesium benzyl fluoromalonate) to produce Beta-Keto fluoroester, followed by hydrogenation with Pd/c to produce Boc-D(OMe)FK, which was converted into Tfa salt using trifluoroacetic acid. Coupling of Tfa salt with Z-D(OMe)—I—P—OH in DMF with HOBT, HBTU DIEA and workup produced a crude product which was purified by column chromatography over silica gel. Elution with EtOAC:MeOH 95:5 gave pure fractions which were mixed and dried. Crystallization with EtOAC/Hexane, filtration and drying produced the pure product. Animals. Time-pregnant C57/bL mice were housed under standard conditions: constant temperature (22±1° C.), humidity (relative, 30%) and a 12-h light/dark cycle with free access to food and water. The animals and protocol procedures were approved and supervised by the Committee on Animal Care (COAC) at Iowa State University. Cell culture. Rat mesencephalic dopaminergic neuronal (N27) cells were cultured as described earlier (Anantharam et al., 2002). Briefly, cells were grown in RPMI 1640 medium containing 10% fetal bovine serum, 2 mM L-glutamine, 50 units of penicillin, and 50 μg/ml streptomycin. Cells were maintained in a humidified atmosphere of 5% CO2 at 37° C. Primary mesencephalic neuronal cultures were prepared from the ventral mesencephalon of gestational 18-day-old mice embryos as described previously (Yang et al., 2004). Mesencephalic tissues were dissected and maintained in ice-cold Ca2+-free HBSS and then dissociated in HBSS solution containing trypsin-EDTA (0.25%) for 20 min at 37° C. The dissociated cells were then plated at equal density (0.5×10^6 cells) in 30-mm-diameter tissue culture wells pre-coated with poly-lysine (1 mg/ml). Cultures were maintained in a chemically defined, serum-free medium consisting of neurobasal medium fortified with B-27 supplements, L-glutamine (500 μM), penicillin (100 IU/ml), and streptomycin (100 μg/ml) (Life Technologies). The cells were maintained in a humidified CO2 incubator (5% CO2, 37° C.) for 24 hr and then treated with cytosine arabinoside (10 μM) for 24 hr to inhibit glial cell proliferation. […]

Assay [3] relates to PKCδ. The assay is described as follows: Immunoprecipitation kinase assay (histone H1 phosphorylation) in N27 cells. In kind it is cell-based, rat. The settings on record: inhibitor 50 μM.
From the text: as §1, with “culture.” for “culture. Rat mesencephalic dopaminergic neuronal (N27) cells were cultured as described earlier (Anantharam et al., 2002). Briefly, cells were grown in RPMI 1640 medium containing 10% fetal bovine serum, 2 mM L-glutamine, 50 units of penicillin, and 50 μg/ml streptomycin. Cells were maintained in a humidified atmosphere of 5% CO2 at 37° C. Primary mesencephalic neuronal cultures were prepared from the ventral mesencephalon of gestational 18-day-old mice embryos as described previously (Yang et al., 2004). Mesencephalic tissues were dissected and maintained in ice-cold Ca2+-free HBSS and then dissociated in HBSS solution containing trypsin-EDTA (0.25%) for 20 min at 37° C. The dissociated cells were then plated at equal density (0.5×10^6 cells) in 30-mm-diameter tissue culture wells pre-coated with poly-lysine (1 mg/ml). Cultures were maintained in a chemically defined, serum-free medium consisting of neurobasal medium fortified with B-27 supplements, L-glutamine (500 μM), penicillin (100 IU/ml), and streptomycin (100 μg/ml) (Life Technologies). The cells were maintained in a humidified CO2 incubator (5% CO2, 37° C.) for 24 hr and then treated with cytosine arabinoside (10 μM) for 24 hr to inhibit glial cell proliferation.”

The mark [4] stands for this setting: 10 μM MPP+ 24 hr, inhibitor 10 and 50 μM.

Where a SMILES comes first, the peptide text is derived from it. The star is where a group is joined. Cbz = O=C(OCc1ccccc1)*; CH2F = FC*

As for `CC[C@H](C)[C@H](NC(=O)[C@H](CC(=O)OC)NC(=O)OCc1ccccc1)C(=O)N1CCC[C@H]1C(=O)N[C@@H](CC(=O)OC)C(=O)CF` [z-DIPD-fmk, Z-Asp(OMe)-Ile-Pro-Asp(OMe)-FMK] (Cbz-D(OMe)IPD(OMe)-CH2F), the “protection against 6-OHDA-induced cell death (MTT)” value in assay [1] is on record as “significantly protected”. Moreover, in assay [2] (setting [4]), the “TH+ cell counts, protection against MPP+ neurotoxicity” value is on record as “nearly complete protection” and the “average lengths of TH+ neuronal processes versus MPP+ only” value was “significantly longer”. Further, the “TH+ cell counts, protection against 6-OHDA neurotoxicity” value in assay [2] (30 μM 6-OHDA 24 hr, inhibitor 10 and 50 μM) is reported as “nearly complete protection”. In addition, the “rescue of tyrosine hydroxylase positive neurons from MPP+- and 6-OHDA-induced toxicity” value in assay [2] (mouse primary mesencephalic cultures) was “completely rescued”. The “effect on 6-OHDA-induced degeneration of TH+ neurons and their processes” value in assay [2] (primary nigral cultures, 30 μM 6-OHDA 24 hr, inhibitor 10 and 50 μM) is on record as “significantly blocked”. Further, in assay [2] (primary nigral dopaminergic neurons, 10 μM MPP+ 24 hr, inhibitor 10 and 50 μM), the “effect on MPP+-induced degeneration of TH+ neurons and their processes” value is “significantly blocked”. Further, in assay [3] (100 μM 6-OHDA 24 hr), the “effect on 6-OHDA-induced PKCδ kinase activity” value is reported as “almost completely suppressed”. For the same compound, in assay [3] (300 μM MPP+ 36 hr), the “effect on MPP+-induced PKCδ kinase activity” value is “almost completely suppressed”.
